Test results reported in paper PMC5939068 (Proceedings of the National Academy of Sciences of the …, 2018).

Target: 52SFK (HAdV-52 short fiber knob) (human adenovirus 52, UniProt A0MK70)
Assay: SPR with immobilized knob
Type: binding
Conditions: oligoSia in solution

CC(=O)N[C@H]1[C@H]([C@H](O)[C@H](O)CO)O[C@@](O[C@H](CO)[C@@H](O)[C@@H]2OC(O)(C(=O)O)C[C@H](O)[C@H]2NC(C)=O)(C(=O)O)C[C@@H]1O (stereo partly shown) [DP2, disialic acid]
SPR with immobilized knob: the biggest increase in affinity was shown between DP2 and DP3
